Source: patent US20260092179A1, “GENETICALLY MODIFIED HOST CELLS PRODUCING VIOLACEIN, ANALOGUES, AND DERIVATIVES THEREOF” (OCTARINE BIO APS, priority 2022, published 2026)

Columns and labels:
[1] = system: S. cerevisiae; assay: Cultivation of engineered S. cerevisiae production strains (titer of each metabolite, final OD600, product toxicity); details: intracellular accumulation; growth rate and final OD600
Method: Genetically engineered yeast strains were pre-cultured in 500 μL or 5 mL of liquid Delft minimal media (Table 10) with 20 g/L glucose and relevant amino acid supplements for 48 h at 30° C. and 280 rpm in 2 mL microtiter plates with air-permeable sealing or 12 mL cultivation tubes. Subsequently, 10 μL or 1 mL of yeast preculture was transferred to 490 μL or 49 mL of Delft minimal media with 20 g/L glucose and relevant amino acid supplements and cultivated for 72 h at 30° C. and 280 rpm in either a 2 mL microtiter plate with air-permeable sealing, or a 200 mL shakeflask. After cultivation, extracellular metabolites were extracted by mixing whole cell broth 1:1 with 100% methanol, vortexing thoroughly and centrifuging at 4000×g for 5 min. […]
In some cases, where a non-ionic surfactant was added to the cultivation media, extraction of extracellular metabolites was done by centrifuging the entire culture broth at 4000×g for 5 min to separate the culture into 3 phases, a biomass “pellet” a dilute surfactant phase, and a violacein or violacein derivative concentrated surfactant phase. […] Where possible, authentic analytical standards were used for quantification. […] Yeast cells were pelleted by centrifugation at 11.000×G for 5 min., and the supernatant was recovered and analyzed by UHPLC or LC-MS/MS. […]

[2] = system: S. cerevisiae SC-144
[3] = Free radical scavenging ability of dyed Nylon 6,6 fabric (DPPH); type: biochemical; details: dyed Nylon 6,6 fabric strip
Method: Violacein is reported as being a potent antioxidant able to effectively scavenge free radicals. […] To test this, 1.5×1.5 cm dyed Nylon 6,6 fabric strips were incubated in the dark at room temperature for 1 h in 5 mL of a 5×10^−5 M DPPH free radical solution in 100% ethanol. Undyed Nylon 6,6 fabric strips were included as a negative control. After 1 h absorbance was measured at 517 nm and % scavenging ability calculated as above.

[4] = system: E. coli DH5a; assay: Antimicrobial activity of dyed Nylon 6,6 fabric: final OD600 and % inhibition; type: cell-based
Method: (§1) Violacein is reported as being a potent antibiotic, capable of inhibiting the growth of a wide range of microbial kingdoms including bacteria, yeast, fungi, viruses, protozoa and nematode. […] To test this, overnight cultures of wild-type E. coli DH5a and S. cerevisiae S228c strains were diluted in 5 mL of cultivation media (LB for E. coli, minimal media for S. cerevisiae) to a starting OD600 of 0.1. 1.5×1.5 cm dyed Nylon 6,6 fabric strips were sterilized by submerging in 75% ethanol for 15 mins and air drying in a laminar air flow hood before adding to each culture (with undyed Nylon 6,6 fabric as a negative control). […] This experiment provides evidence that all violacein derivatives display antimicrobial properties.

[5] = system: S. cerevisiae S228c; assay: as above; type: cell-based
Method: as §1

[6] = UV absorption capability (absorbance maxima, UV-A, UV-B, UV-C absorption) by HPLC; type: physicochemical
Method: The software Agilent Openlab CDS Chemstation Rev.
Violacein is reported as being a potent UV absorbent able to effectively absorb UV radiation, however, much less is known about the other violacein derivatives. To investigate the potential of using violacein and violacein derivatives as UV inhibitors and to potentially impart UV protection to fabrics, the UV absorption spectra of each compound was analyzed by HPLC and the total absorption capability at each of the most relevant UV wavelengths quantified.
For the quantification of UV absorption capacity of the compound of interest, a chromatographic separation on the F5 column and a gradient of water/acetonitrile containing 0.05% formic acid was run according to Example 5). […] The compounds were quantified based on the signal at 230 nm, using calibration curves of authentic analytical standards.
The UV absorption capacity is represented in mAU.min/mM. UV-A, UV-B and UV-C represent the most relevant regions where UV protection is required. UV-C is the most harmful type of UV radiation and can be generated by inorganic sources. UV-B radiation predominantly comes from the suns rays and is responsible for sun burn. UV-A radiation is also derived predominantly from the suns rays, and while UV-A radiation is less harmful than UV-B or UV-C but is much more prevalent.

[7] = Solubility, stability (heat, UV) and colour of violacein and proviolacein glycosides in aqueous solution; type: physicochemical
From the text: In this experiment, qualitative assessments of the solubility, stability and colour of glycosylated violacein and proviolacein were made. The first notable observation was that after the scale-up glycosylation reaction the aqueous phase of the reaction mix was purple (for violacein) and blue (for proviolacein). […] While its well known that glycosylation greatly improves the water solubility of molecules, the attachment of a sugar group typically changes the physiochemical properties of the molecule. In the case of coloured compounds, this typically eliminates their colour. The observation here that glycosylation results in a derivative that retains the original colour is both surprising and commercially useful for use in aqueous products e.g. beverages. To test the stability of violacein and proviolacein glycosides in aqueous solution the solutions were exposed to heat (incubated at 80° c. for 6 h) and UV (incubated in a UV hood for 6 h). HPLC analysis before after each test was used to measure the amount that had degraded during exposure. […] (approx. 0.1% lost during exposure).

[8] = In vitro glycosylation of violacein by purified UGT enzymes (% conversion); type: biochemical; details: 350 μM violacein, 24 h incubation at 30° c.
Method: (§2) Glycosyltransferase (UGT) enzymes were produced and purified as follows. 5 mL of 2× concentrated LB medium+appropriate antibiotic (50 μg/mL) was inoculated with E. coli XJb (DE3) strains expressing a plasmid of interest and incubated overnight at 30° C. with shaking. The following day, 50 ml TB medium+antibiotic in 250 ml baffled flasks was inoculated with 0.5 mL overnight cell culture and incubated for 3.5 hrs at 30° C. The cell cultures were then induced with 3 mM arabinose, 0.1 mM IPTG and Incubated for 24 h at 25° C., with shaking. The following day, the cells were collected by centrifugation at 6500×g for 10 mins at 4° C. Cells were resuspended in 5 mL ice-cold protein extraction buffer (50 mM Tris-HCl pH7.4+1 mM phenylmethanesulfonyl fluoride+1 cOmplete™, mini, EDTA-free Protease Inhibitor Cocktail tablet (Roche). The resuspended material was transferred to five 1.5 mL eppendorf tubes and kept at −80° C. for at least 15 mins. The tubes were then thawed at room temperature, as the tubes were thawing the following reagents were added; 2.6 mM MgCl2, 1 mM CaCl2, 300 U/mL DNase solution (DENARASE®, C-lecta) and 0.2 mg/mL lysozyme (Sigma) dissolved in MilliQwater. Tubes were gently inverted to mix then were incubated for 10-15 mins at 37° C. […] of 4× Binding buffer was then added to the tubes (to final concentration of 50 mM Tris-HCl pH7.4, 10 mM imidazole, 500 mM NaCl and the pH adjusted to 7.4 with HCl). The mix was centrifuged at 10000×g for 30 mins at 4° C., the supernatant transferred to a fresh eppendorf tubes and centrifuged again to remove any remaining cellular debris at 10000×g for 30 minutes at 4° C. While the enzyme prep was centrifuging, HisPur 0.2 ml spin column (Thermo Scientific) are prepared as instructed by manufacturer. HisPur column was washed with MilliQ water and equilibrated with two resin-bed volumes of 1×his-binding buffer two times. HisPur column was centrifuged at 700×g for 2 minutes to remove buffer. 600 μL of collected supernatant from the centrifuged enzyme preparation was transferred to the HisPur column and then incubated at 4° C. with gentle shaking by inversion for 30 minutes. After 30 minutes, the unbound protein was removed by centrifugation 700×g for 2 min. The remaining 600 μL of collected supernatant from the centrifuged enzyme preparation was loaded to the HisPur column and incubated again at 4° C. with shaking. Unspecific binding of other proteins was removed by washing twice with 1× binding buffer (50 mM Tris-HCl, 0.5M NaCl, 10 mM Imidazole, pH 7.4). Enzyme was resuspended in 200 μl elution buffer for 2 minutes before elution by centrifugation (700×g for 2 minutes at 4° C.). Enzymes were used immediately in in vitro enzyme assays or stored at −20° C. in 50% glycerol until needed.
(§3) For in vitro studies of glycosyl transferase performance in glycosylating violacein and violacein derivatives, purified glycosyl transferases were prepared as described in Example 4 and in vitro enzyme assays run as described below in Table 19.
(§4) The reaction mixture was scaled up or down as required. The reaction mixture was incubated without shaking at 30° C. for 24 hours. Extraction and analysis were performed as described in Examples 3 and 5. To confirm the identity of the produced glycosides LC-MS/QTOF was used as described above to confirm the expected mass and fragmentation pattern of each detected molecule. Quantification of violacein glycoside or other violacein derivative glycoside production was done by comparing the peak area of the substrate and the produced glycoside with authentic analytical standards (where available), where a standard was unavailable, quantification was achieved by comparing with an authentic analytical standard of the substrate. % Conversion of a substrate to a glycoside by specific Glycosyl transferases was calculated by measuring the decrease in substrate and increase in product after 24 h incubation. […]

[9] = In vitro glycosylation of proviolacein by purified UGT enzymes (% conversion); type: biochemical; details: 350 μM proviolacein, 24 h incubation at 30° c.
Method: as §2, §3, §4

Molecule: N=C(Cc1c[nH]c2ccccc12)C(=O)O [IPA imine, Indole 3-pyruvic acid imine]
- toxicity to the yeast production host [1]: not toxic

Molecule: CCCCCCCCCCCCCC(=O)OC(C)C [isopropyl myristate]
- toxicity of in situ extractant to S. cerevisiae [2]: non-toxic

Molecule: O=C1N=C(c2c[nH]c3ccccc23)C=C1c1c[nH]c2ccccc12 [prodeoxyviolacein]
- OD517 ([3]; 1 h in the dark in 5×10^−5 M DPPH in 100% ethanol): 1.99
- Scavenging ability % ([3]; 1 h in the dark in 5×10^−5 M DPPH, vs undyed control): 12.28%
- Final OD600 ([4]; E. coli cultured overnight at 30° c. with dyed Nylon 6,6 fabric strip, starting OD600 0.1): 4.67
- % Inhibition ([4]; E. coli, dyed Nylon 6,6 fabric vs undyed fabric control): 10.49%
- Final OD600 ([5]; S. cerevisiae cultured overnight at 30° c. with dyed Nylon 6,6 fabric strip, starting OD600 0.1): 4.70
- % Inhibition ([5]; S. cerevisiae, dyed Nylon 6,6 fabric vs undyed fabric control): 12.35%
- UV absorption capability in the UV-B region ([6]; 305 nm): particularly high
- Total UV absorption UV C (245 nm) ([6]; AUC of HPLC peak at 245 nm per mM): 3516.1 (mAU · min)/mM
- Total UV absorption UV B (305 nm) ([6]; AUC of HPLC peak at 305 nm per mM): 3778.8 (mAU · min)/mM
- Total UV absorption UV A (360 nm) ([6]; AUC of HPLC peak at 360 nm per mM): 0 (mAU · min)/mM

Molecule: O=C1NC(c2c[nH]c3ccc(OC4OC(CO)C(O)C(O)C4O)cc23)=CC1=C1C(=O)Nc2ccccc21 (centres unmarked) [violacein glucoside]
- amount lost (degraded) during exposure to UV [7]: approx. 0.1%
- amount lost (degraded) during exposure to heat [7]: approx. 0.1%
- water solubility [7]: water soluble

Molecule: (1,1,3,3-Tetramethylbutyl)phenyl-polyethylene glycol, Polyethylene glycol tert-octylphenyl ether [Triton X-114]
- toxicity of in situ extractant to S. cerevisiae [2]: non-toxic

B1: Cp73B: glycosyltransferase from Carica papaya (SEQ ID NO: 72) (protein, listed as Carica papaya)
chain: MGSEVLHHDYSQLNIFFFPFMAHGHMIPTLDMAKLFATHGAKTSIITTPLNLPFFSKSIERFSKQTGLEIGVKLLNFPSVEVGLPSGCENADSLPAGEPLIVNKFFAAAGMLKDPLERLLQEFKPDCLIADMFFPWTTDAAAKFDIPRLVFHGTSFFALSASECIRLYTPFNNVSSDSEPFLVPTLPDEIRLTRNQLADFAMKEGDENGIHRLIKEAKESELKSYGVVVNSFYELEPAYADHYRNFLKRKAWHIGPVSLCNKTVEDKAERGKRASIDEDECLKWLNSKAPNSVIYICFGSMANFNSAQLMEIATALDASGQEFIWVVRREKNENNQEDWLPEGFEQRTEGKGLIIRGWAPQVLILEHEAVGGFVTHCGWNSTLEGVTAGMPMVTWPVSAEQFYNEKLVTEVLKIGLSVGVKKWVRSEGDFVSREKVEQAVREIMVGSEAVERRMRAKAMADMARAAVEKGGSSYNDLNALLREVSLMRRQQSQNQ
- Product % production: Mono-glucoside [8]: 25.65%
- Product % production: Total conversion [8]: 25.65%
- Product % production: Mono-glucoside [9]: 8.12%
- Product % production: Total conversion [9]: 8.12%
